The record followed here is paper doi:10.1101/2023.08.01.551199v1, “Activation of cannabinoid CB2 receptors by (−)-cannabichromene but not (+)-cannabichromene” (biorxiv, 2023).

Holding throughout (format): cell-based
In assay [1] the target is T1, human TRPA1 (Homo sapiens, UniProt O75762).
T1 construct: tetracycline-induced expression in HEK293 FlpIn/T-REx cells
As to the kind of experiment: fluorescent intracellular calcium assay (FLIPR Ca5), HEK293-TRPA1 cells. The conditions noted are these: agonist; 37 °C, pH 7.4, 0.1% DMSO, 1.25 mM probenecid. (In general: Calcium flux is commonly read through the fluorescence of an indicator in the cells.)

Assay [2] concerns the target T2, human CB2 (Homo sapiens, UniProt P34972).
T2 construct: gene CNR2; stably expressed in AtT20 FlpIn cells
Briefly: fluorescent membrane potential assay (MPA Blue), AtT20-CB2 cells. The note with it: 37 °C, pH 7.4, 0.1% DMSO; no activation up to the highest concentration tested.

Assay [3] addresses T1, human TRPA1. As to the kind of experiment: fluorescent intracellular calcium assay (FLIPR Ca5), HEK293-TRPA1 cells. From the text: fluorescent intracellular calcium assay (FLIPR Ca5), HEK293-TRPA1 cells on human TRPA1 | In HEK293-TRPA1 cells cinnamaldehyde produced an increase in Ca5 fluorescence

T1 sequence (O75762 whole entry): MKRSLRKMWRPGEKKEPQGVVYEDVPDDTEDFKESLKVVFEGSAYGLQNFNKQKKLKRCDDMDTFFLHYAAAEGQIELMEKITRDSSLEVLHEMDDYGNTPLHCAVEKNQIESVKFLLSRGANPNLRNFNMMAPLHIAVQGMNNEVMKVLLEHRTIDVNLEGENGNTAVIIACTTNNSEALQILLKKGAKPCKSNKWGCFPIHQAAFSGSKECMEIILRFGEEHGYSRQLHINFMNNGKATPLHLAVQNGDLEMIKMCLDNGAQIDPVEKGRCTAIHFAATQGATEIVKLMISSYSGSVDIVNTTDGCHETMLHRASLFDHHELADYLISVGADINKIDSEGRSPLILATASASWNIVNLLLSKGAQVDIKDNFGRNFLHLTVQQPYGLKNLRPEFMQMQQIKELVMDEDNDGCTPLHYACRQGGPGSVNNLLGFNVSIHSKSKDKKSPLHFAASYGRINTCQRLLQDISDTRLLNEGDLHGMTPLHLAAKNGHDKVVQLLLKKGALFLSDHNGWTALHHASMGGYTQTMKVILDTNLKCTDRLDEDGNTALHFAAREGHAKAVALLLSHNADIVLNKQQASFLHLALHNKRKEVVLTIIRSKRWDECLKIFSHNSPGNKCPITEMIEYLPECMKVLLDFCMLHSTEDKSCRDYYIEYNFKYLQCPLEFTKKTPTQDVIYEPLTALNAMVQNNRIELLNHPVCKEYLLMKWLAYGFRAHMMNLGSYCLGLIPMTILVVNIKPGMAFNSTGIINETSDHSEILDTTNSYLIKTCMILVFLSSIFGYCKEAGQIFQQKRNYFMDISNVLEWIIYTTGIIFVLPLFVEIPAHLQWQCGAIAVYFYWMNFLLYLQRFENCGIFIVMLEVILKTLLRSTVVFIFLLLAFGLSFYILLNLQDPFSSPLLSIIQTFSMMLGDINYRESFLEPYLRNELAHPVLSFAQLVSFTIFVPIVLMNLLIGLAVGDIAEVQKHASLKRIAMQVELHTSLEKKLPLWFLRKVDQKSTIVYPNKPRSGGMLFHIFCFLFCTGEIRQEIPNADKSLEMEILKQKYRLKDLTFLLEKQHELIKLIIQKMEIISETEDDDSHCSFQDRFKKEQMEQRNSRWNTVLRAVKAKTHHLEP
T2 sequence (P34972 whole entry): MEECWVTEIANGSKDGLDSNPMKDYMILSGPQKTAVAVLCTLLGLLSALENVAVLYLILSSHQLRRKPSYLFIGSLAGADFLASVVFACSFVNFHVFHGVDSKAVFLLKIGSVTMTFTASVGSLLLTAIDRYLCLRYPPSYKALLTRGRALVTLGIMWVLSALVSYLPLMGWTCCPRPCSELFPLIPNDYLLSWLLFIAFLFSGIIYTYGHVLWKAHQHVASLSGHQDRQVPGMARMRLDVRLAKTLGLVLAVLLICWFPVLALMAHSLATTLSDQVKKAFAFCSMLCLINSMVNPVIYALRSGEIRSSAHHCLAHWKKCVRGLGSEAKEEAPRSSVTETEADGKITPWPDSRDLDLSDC

Broadly, the EC50 is the concentration needed to bring the measured effect to its halfway point. With `CCCCCc1cc(O)c2c(c1)OC(C)(CCC=C(C)C)C=C2` (single isomer, unassigned; (+)) [(+)-CBC], the “increase in fluorescence at 30 μM” value in assay [1] came to 159 ± 27%. The EC50 in assay [2] is given as greater than 30 µM.

As for `O=CC=Cc1ccccc1` [cinnamaldehyde], the concentration giving a half-maximal response (EC50) in assay [3] was 11 µM.
